Some test systems named below: SNB-19 CNS; SK-OV-3 ovarian; A549 NSCLC; UACC-62 melanoma; CCRF-CEM leukemia; SN12C renal; UO-31 renal; HCT-15 colon; NCI-H460 lung; HOP-92 NSCLC; HCT-116 colon; NCI-H522 lung; MDA-N; BT-549 breast.
Assay in all cases: DTP human tumour cell line panel, 48 h

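A five-concentration, 48-hour dose response in 96-well plates underlies each endpoint, interpolated linearly between surrounding concentrations. The concentration for full growth arrest is given as TGI.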

From PubChem BioAssay (NCI) come the findings set out here.

Usually TGI stands for the concentration giving total growth inhibition. Read a low TGI as greater sensitivity of the cells. For `CCCOP(=S)(N1CC1)N1CC1`, the TGI with SNB-19 CNS, in the test with SK-OV-3 ovarian, with A549 NSCLC, in the test on UACC-62 melanoma, in the test on CCRF-CEM leukemia and with SN12C renal was greater than 100 µM throughout. Also, the total growth inhibition concentration (TGI) in the test with UO-31 renal, with HCT-15 colon, in the test on NCI-H460 lung, with HOP-92 NSCLC, with HCT-116 colon and in the test with NCI-H522 lung was greater than 100 µM throughout.

Turning to `COc1ccccc1Cn1[nH]c(=O)c2cc([N+](=O)[O-])ccc21`, the TGI in the test on SNB-19 CNS, in the test with A549 NSCLC, in the test with UACC-62 melanoma, in the test with CCRF-CEM leukemia, with SN12C renal and with UO-31 renal was greater than 100 µM each time. Moreover, the TGI in the test on HCT-15 colon is greater than 100 µM; in the test on NCI-H460 lung it was greater than 100 µM; with HOP-92 NSCLC, 93.4 µM; in the test with HCT-116 colon, greater than 100 µM; with NCI-H522 lung, greater than 100 µM; with MDA-N, greater than 100 µM.

With `CC(C)(C)N=c1n(C(C)(C)C)oc(=O)n1-c1ccccc1`, the TGI in the test with SNB-19 CNS, with SK-OV-3 ovarian, in the test on A549 NSCLC, in the test with UACC-62 melanoma, in the test on CCRF-CEM leukemia and with SN12C renal was greater than 50 µM each time. Besides, the concentration for total growth inhibition (TGI) in the test with UO-31 renal, with HCT-15 colon, with NCI-H460 lung, in the test with HOP-92 NSCLC, with HCT-116 colon and with NCI-H522 lung was greater than 50 µM each time. Further, the TGI in the test on MDA-N was greater than 50 µM.

Take `CN(C)Cc1[nH]c2ccccc2c1C(=O)c1ccccc1`: the TGI with SNB-19 CNS, in the test with A549 NSCLC, in the test on UACC-62 melanoma, with CCRF-CEM leukemia, with UO-31 renal and with HCT-15 colon was greater than 100 µM each time. Also, the TGI in the test with NCI-H460 lung, with HOP-92 NSCLC, in the test on HCT-116 colon and with NCI-H522 lung was greater than 100 µM in each case.

Take `c1ccc(CSC(SCc2ccccc2)c2ccc3c(c2)OCO3)cc1`: the TGI in the test on SNB-19 CNS, in the test with SK-OV-3 ovarian, with A549 NSCLC, in the test with UACC-62 melanoma, in the test with CCRF-CEM leukemia and with SN12C renal was greater than 10 µM throughout. Also, the TGI with UO-31 renal, with HCT-15 colon, with NCI-H460 lung, in the test with HOP-92 NSCLC, in the test with HCT-116 colon and with NCI-H522 lung was greater than 10 µM throughout. Moreover, the total growth inhibition concentration (TGI) with MDA-N was greater than 10 µM.

Consider `COc1nc(C)nc2c1ncn2Cc1ccccc1`, for which the TGI in the test on SNB-19 CNS, in the test on SK-OV-3 ovarian, with A549 NSCLC, in the test on UACC-62 melanoma, with CCRF-CEM leukemia and with SN12C renal was greater than 100 µM each time. Besides, the TGI was greater than 100 µM in the test with HCT-15 colon; greater than 100 µM in the test with NCI-H460 lung; 53.9 µM in the test with HOP-92 NSCLC; greater than 100 µM with HCT-116 colon; greater than 100 µM in the test with NCI-H522 lung; greater than 100 µM in the test with MDA-N.

For `Cc1ccccc1NC(=O)CSc1nnc(Cc2ccccc2)o1`, the TGI with SK-OV-3 ovarian, in the test on A549 NSCLC, with UACC-62 melanoma, with CCRF-CEM leukemia, with SN12C renal and in the test with UO-31 renal was greater than 100 µM in each case. Further, the TGI in the test on HCT-15 colon, in the test with NCI-H460 lung, in the test with HCT-116 colon and in the test on NCI-H522 lung was greater than 100 µM each time.

For `Cc1[nH]c2ccccc2c1C1=CC(=O)N(c2ccccc2)C1=O`, the TGI in the test on SNB-19 CNS was greater than 100 µM; in the test with SK-OV-3 ovarian it was greater than 100 µM; with A549 NSCLC, greater than 100 µM; in the test on UACC-62 melanoma, 26.9 µM; in the test on BT-549 breast it was greater than 100 µM; in the test on CCRF-CEM leukemia, 73.4 µM. Further, the TGI in the test with SN12C renal is 86 µM; in the test with UO-31 renal it was greater than 100 µM; with HCT-15 colon, 34.5 µM; in the test with NCI-H460 lung, 39.4 µM; with HOP-92 NSCLC, 50.9 µM; with HCT-116 colon it was 22.7 µM.

Take `CC(=O)C1=NN(c2ccccc2)C2(S1)SC(c1ccccc1)(c1ccccc1)c1ccccc12` (stereo not drawn): the TGI in the test with SNB-19 CNS was greater than 100 µM; in the test with SK-OV-3 ovarian it was greater than 100 µM; in the test on A549 NSCLC, greater than 100 µM; in the test with UACC-62 melanoma, 48.7 µM; in the test with CCRF-CEM leukemia, greater than 100 µM; in the test with SN12C renal, greater than 100 µM. Further, the TGI with UO-31 renal is greater than 100 µM; in the test with HCT-15 colon it was greater than 100 µM; in the test with NCI-H460 lung, greater than 100 µM; in the test with HOP-92 NSCLC, 46.1 µM; with HCT-116 colon, greater than 100 µM; with NCI-H522 lung, 80.1 µM.

On to `Cn1c(=O)sc2cc(C(=S)N3CCN(c4ccccc4)CC3)ccc21`, for which the TGI in the test on SNB-19 CNS, in the test on SK-OV-3 ovarian, in the test on UACC-62 melanoma, in the test with BT-549 breast, in the test on CCRF-CEM leukemia and with SN12C renal was greater than 100 µM each time. Further, the TGI with HCT-15 colon, in the test on NCI-H460 lung, in the test with HCT-116 colon and with MDA-N was greater than 100 µM each time.

In the case of `COc1ccc(C2C(Cl)C(=O)N2NC(=O)c2ccccc2O)cc1OC` (stereo not drawn), the TGI in the test on SNB-19 CNS, with SK-OV-3 ovarian, in the test on A549 NSCLC, in the test on UACC-62 melanoma, with CCRF-CEM leukemia and in the test with SN12C renal was greater than 100 µM each time. Moreover, the TGI in the test on UO-31 renal, in the test with HCT-15 colon, with NCI-H460 lung, with HCT-116 colon and with NCI-H522 lung was greater than 100 µM each time.

As to `CCOC(=O)NC(=S)NC(C)c1ccccc1` (stereo not drawn), the TGI in the test with SNB-19 CNS, in the test on SK-OV-3 ovarian, with A549 NSCLC, in the test with UACC-62 melanoma, with BT-549 breast and in the test with CCRF-CEM leukemia was greater than 100 µM throughout. The concentration for total growth inhibition (TGI) with UO-31 renal, with HCT-15 colon, in the test with HCT-116 colon, with NCI-H522 lung and with MDA-N was greater than 100 µM throughout.
